According to the Kinase Knowledgebase extract (Sharma et al. 2016):
Values after ≈ are worked out from the molar mass of the structure shown.

Legend:
EGFR = EGFR (UniProt P00533)
EGFR (human) [1] = target: EGFR (human) (UniProt P00533); details: lox
EGFR (human) [2] = target: EGFR (human) (UniProt P00533); details: a2780ddp
EGFR (human) [3] = target: EGFR (human) (UniProt P00533); details: mb435
EGFR (human) [4] = target: EGFR (human) (UniProt P00533); details: mcf-7
EGFR (human) [5] = target: EGFR (human) (UniProt P00533); details: skbr3
EGFR (human) [6] = target: EGFR (human) (UniProt P00533); details: sw-620
EGFR (human) [7] = target: EGFR (human) (UniProt P00533); details: a431
EGFR (human) [8] = target: EGFR (human) (UniProt P00533); details: a2780s
EGFR (human) [9] = target: EGFR (human) (UniProt P00533)

Sequence of EGFR (P00533 whole entry, looked up): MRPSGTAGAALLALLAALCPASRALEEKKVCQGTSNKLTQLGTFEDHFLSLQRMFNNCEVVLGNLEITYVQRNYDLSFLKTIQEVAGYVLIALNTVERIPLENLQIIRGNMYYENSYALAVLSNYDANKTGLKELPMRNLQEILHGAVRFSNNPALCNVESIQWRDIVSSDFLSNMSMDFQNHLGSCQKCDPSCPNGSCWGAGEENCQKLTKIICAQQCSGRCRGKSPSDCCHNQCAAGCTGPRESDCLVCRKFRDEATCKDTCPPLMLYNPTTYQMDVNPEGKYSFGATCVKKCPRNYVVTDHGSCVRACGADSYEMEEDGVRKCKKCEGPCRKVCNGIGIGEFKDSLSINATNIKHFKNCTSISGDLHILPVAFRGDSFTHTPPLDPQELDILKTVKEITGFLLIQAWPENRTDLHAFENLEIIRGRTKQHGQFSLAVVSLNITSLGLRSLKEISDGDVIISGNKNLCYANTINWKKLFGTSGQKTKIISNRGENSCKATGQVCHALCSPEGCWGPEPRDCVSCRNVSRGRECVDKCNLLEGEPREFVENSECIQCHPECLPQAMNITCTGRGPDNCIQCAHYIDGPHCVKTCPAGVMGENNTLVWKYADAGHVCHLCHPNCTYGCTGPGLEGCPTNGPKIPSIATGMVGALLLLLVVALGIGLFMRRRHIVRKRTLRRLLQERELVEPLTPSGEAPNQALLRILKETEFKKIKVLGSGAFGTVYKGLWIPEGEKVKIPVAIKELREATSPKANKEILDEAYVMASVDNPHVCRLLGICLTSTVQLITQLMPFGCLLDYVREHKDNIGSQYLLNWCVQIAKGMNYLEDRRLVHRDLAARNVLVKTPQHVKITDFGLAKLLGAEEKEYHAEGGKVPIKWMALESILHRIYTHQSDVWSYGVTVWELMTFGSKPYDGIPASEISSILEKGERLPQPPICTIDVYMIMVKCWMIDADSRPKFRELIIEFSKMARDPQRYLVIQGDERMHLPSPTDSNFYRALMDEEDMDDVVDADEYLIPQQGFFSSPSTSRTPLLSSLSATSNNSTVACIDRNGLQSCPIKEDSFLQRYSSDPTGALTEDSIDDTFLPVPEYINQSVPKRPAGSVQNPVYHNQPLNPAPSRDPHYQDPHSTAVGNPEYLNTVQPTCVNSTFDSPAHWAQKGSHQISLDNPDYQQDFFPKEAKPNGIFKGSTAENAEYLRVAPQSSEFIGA
Sequence of EGFR (human) (P00533 whole entry, looked up): as above

| SMILES | IC50 (EGFR) [pM] | IC50 (EGFR (human) [1]) [µg/mL] | IC50 (EGFR (human) [2]) [µg/mL] | IC50 (EGFR (human) [3]) [µg/mL] | IC50 (EGFR (human) [4]) [µg/mL] | IC50 (EGFR (human) [5]) [µg/mL] | IC50 (EGFR (human) [6]) [µg/mL] | IC50 (EGFR (human) [7]) [µg/mL] | IC50 (EGFR (human) [8]) [µg/mL] | IC50 (EGFR (human) [9]) [pM] |
| --- | --- | --- | --- | --- | --- | --- | --- | --- | --- | --- |
| O=C(/C=C/CBr)Nc1ccc2ncnc(Nc3cccc(Br)c3)c2c1 | 10 | – | – | – | – | – | – | – | – | – |
| CCN(CC)C/C=C/C(=O)Nc1ccc2ncnc(Nc3cccc(Br)c3)c2c1 | 75 | 46 (≈ 101 µM) | 43 (≈ 94.6 µM) | 45 (≈ 99 µM) | 59 (≈ 130 µM) | < 0.01 | 52 (≈ 114 µM) | 0.01 (≈ 0.022 µM) | 22 (≈ 48.4 µM) | – |
| C=C(CN1CCOCC1)C(=O)Nc1ccc2ncnc(Nc3cccc(Br)c3)c2c1 | 5 | 3.9 (≈ 8.33 µM) | 4 (≈ 8.54 µM) | 4.5 (≈ 9.61 µM) | 17 (≈ 36.3 µM) | – | 5.5 (≈ 11.7 µM) | 0.6 (≈ 1.28 µM) | 0.8 (≈ 1.71 µM) | – |
| CSSC(C)C(=O)Nc1ccc2ncnc(Nc3cccc(Br)c3)c2c1 (centres undefined) | – | – | – | – | – | – | – | – | – | 840 |
